Experimental data from ChEMBL document CHEMBL1126482, “Novel Y2-selective, reduced-size agonists of neuropeptide Y” (Bioorg Med Chem Lett, 1993).
pIC50: −log10 of the molar value. Square brackets hold non-standard residues; d marks the D form. Peptide text beside a SMILES is read from it. Cha = N[C@@H](CC1CCCCC1)C(=O)O

Assays:
[1] = target: T1, Neuropeptide Y receptor type 2 (Homo sapiens, UniProt P49146); experiment: Compound was evaluated for its inhibitory activity against human neuropeptide Y2 receptor expressing LN319 cells; type: cell-based
T1 sequence (P49146 whole entry): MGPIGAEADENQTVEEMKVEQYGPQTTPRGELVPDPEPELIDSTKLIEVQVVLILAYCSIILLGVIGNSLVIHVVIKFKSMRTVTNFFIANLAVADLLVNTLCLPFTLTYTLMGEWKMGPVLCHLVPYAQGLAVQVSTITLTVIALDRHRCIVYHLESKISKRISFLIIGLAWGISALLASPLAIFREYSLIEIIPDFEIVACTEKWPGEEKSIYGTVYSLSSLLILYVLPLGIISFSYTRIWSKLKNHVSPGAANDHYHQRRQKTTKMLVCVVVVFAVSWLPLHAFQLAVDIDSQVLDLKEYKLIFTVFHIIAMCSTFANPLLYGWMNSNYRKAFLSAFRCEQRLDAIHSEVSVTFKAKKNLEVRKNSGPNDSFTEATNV

[2] = target: T2, Neuropeptide Y receptor type 1 (Homo sapiens, UniProt P25929); experiment: Compound was evaluated for its inhibitory activity against human neuropeptide Y1 receptor expressing SK-N-MC cells; type: cell-based
T2 sequence (P25929 whole entry): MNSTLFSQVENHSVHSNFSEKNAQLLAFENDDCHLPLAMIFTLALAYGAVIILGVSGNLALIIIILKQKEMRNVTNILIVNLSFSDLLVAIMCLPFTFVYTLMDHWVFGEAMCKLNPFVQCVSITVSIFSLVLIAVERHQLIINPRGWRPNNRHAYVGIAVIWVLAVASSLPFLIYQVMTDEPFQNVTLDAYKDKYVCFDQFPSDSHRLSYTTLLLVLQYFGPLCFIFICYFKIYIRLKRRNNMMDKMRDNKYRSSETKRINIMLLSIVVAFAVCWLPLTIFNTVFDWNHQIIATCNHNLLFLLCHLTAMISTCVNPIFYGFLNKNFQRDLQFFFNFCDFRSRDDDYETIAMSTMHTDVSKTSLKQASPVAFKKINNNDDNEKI

[3] = species: Rattus norvegicus; experiment: Compound was evaluated for its ability to inhibit electrically evoked rat vas deferens contractions; type: functional

A pIC50 [1] of 8.30 and a pIC50 ([2]; sk-n-mc) of 7.41 were found for `CC[C@H](C)[C@H](NC(=O)[C@H](Cc1ccc(O)cc1)NC(=O)[C@H](Cc1c[nH]cn1)NC(=O)[C@H](CCCN=C(N)N)NC(C)=O)C(=O)N[C@@H](CC(N)=O)C(=O)N[C@@H](CC(C)C)C(=O)N[C@@H](CC1CCCCC1)C(=O)N[C@H](C(=O)N[C@@H](CCCN=C(N)N)C(=O)N[C@@H](CCC(N)=O)C(=O)N[C@@H](CCCN=C(N)N)C(=O)N[C@@H](Cc1ccc(O)cc1)C(=O)O)[C@@H](C)O` (Ac-RHYINL[Cha]TRQRY-OH) in this work.

A pIC50 [1] of 8.10 and a pIC50 ([2]; sk-n-mc) of 4.36 were found for `CC[C@H](C)[C@H](NC(=O)[C@H](Cc1ccc(O)cc1)NC(=O)[C@H](Cc1c[nH]cn1)NC(=O)[C@H](CCCN=C(N)N)NC(C)=O)C(=O)N[C@@H](CC(N)=O)C(=O)N[C@@H](CC1CCCCC1)C(=O)N[C@H](C(=O)N[C@H](C(=O)N[C@@H](CCCN=C(N)N)C(=O)N[C@@H](CCC(N)=O)C(=O)N[C@@H](CCCN=C(N)N)C(=O)N[C@@H](Cc1ccc(O)cc1)C(=O)O)[C@@H](C)O)[C@@H](C)CC` (Ac-RHYIN[Cha]ITRQRY-OH) in this work.

A pIC50 [1] of 8.52 and a pIC50 ([2]; sk-n-mc) of 4.59 were found for `CC[C@H](C)[C@H](NC(=O)[C@H](Cc1ccc(O)cc1)NC(=O)[C@H](Cc1c[nH]cn1)NC(=O)[C@H](CCCN=C(N)N)NC(C)=O)C(=O)N[C@@H](CC(N)=O)C(=O)N[C@@H](CC1CCCCC1)C(=O)N[C@@H](CC1CCCCC1)C(=O)N[C@H](C(=O)N[C@@H](CCCN=C(N)N)C(=O)N[C@@H](CCC(N)=O)C(=O)N[C@@H](CCCN=C(N)N)C(=O)N[C@@H](Cc1ccc(O)cc1)C(=O)O)[C@@H](C)O` (Ac-RHYIN[Cha][Cha]TRQRY-OH) in this work.

A pIC50 [3] of 5.35 and a pIC50 [2] of 4.46 were found for Ac-RHYINLITRQRY-OH in this work.
